Measured values taken from patent US11452731B2, “Method of treating and preventing loss of cognition” (ENDORECHERCHE, INC., priority 2009, dated 2022).
Where two headings read alike, the source gives them in different places.

Tests used:
[1] = Uterine and vaginal weight in ovariectomized BALB/c mice treated orally for 9 days with or without estrone (Example 3); type: in vivo; conditions: for inhibition of estrone-stimulated uterine weight / inhibition of vaginal weight (estrone-stimulated): OVX mice + estrone, oral 9 days
Protocol: Female BALB/c mice (BALB/cAnNCrlBR) weighing 18-20 g were obtained from Charles-River, Inc. (St-Constant, Quebec, Canada) and housed 5 per cage in a temperature (23±1° C.)- and light (12 h light/day, lights on at 7:15)-controlled environment. The mice were fed rodent chow and tap water ad libitum. The animals were ovariectomized (OVX) under Isoflurane anesthesia via bilateral flank incisions and randomly assigned to groups of 10 animals. Ten mice were kept intact as controls.
In the second experiment (Table 6), TSE 424 was administered orally by gavage once daily at doses of 1, 3, 10 or 30 μg/animal for 9 days, starting 2 days after ovariectomy. In both experiments, to evaluate the antiestrogenic activity, treatment with estrone (E1, […], s.c. injection, twice daily) was started 5 days post-ovariectomy and was administered for a 6 day-period. Compounds were dissolved in ethanol (4% final concentration) and administered in 0.4% methylcellulose. Mice in the intact and OVX control groups received the vehicle alone (4% ETOH-0.4% methylcellulose) during the 9-day period. The animals were killed by exsanguination at the abdominal aorta on the 11th morning following ovariectomy. The uteri and vagina were rapidly dissected, weighed, and kept in 10% buffered formalin for further histologic examination.

human Ishikawa cells = assay: Alkaline phosphatase activity in human endometrial adenocarcinoma Ishikawa cells (Example 6)
[2] = tested on: MCF-7 human breast cancer cells; assay: Proliferation (DNA content) of human breast cancer MCF-7 cells (Example 7); type: cell-based; conditions: for IC50: Homo sapiens, read-out: Inhibition of 1 nM E2 stimulation of DNA by tested compounds IC50
Description: MCF-7 human breast cancer cells were obtained from the American Type Culture Collection #HTB 22 at passage 147 and routinely grown in phenol red-free Dulbecco's Modified Eagle's-Ham's F12 medium, the supplements mentioned above and 5% FBS. The MCF-7 human breast adenocarcinoma cell line was derived from the pleural effusion of a patient. MCF-7 cells were used between passages 148 and 165 and subcultured weekly
Thereafter, medium was replaced with fresh medium containing the indicated concentrations of compounds diluted from 1000×stock solutions in 99% redistilled ethanol in the presence or absence of E2. Control cells received only the ethanolic vehicle (0.1% EtOH, v/v). Cells were incubated for the specified time intervals with medium changes at 2- or 3-day intervals. Cell number was determined by measurement of DNA content.
All results are expressed as means±SEM.

[3] = 5-week treatment of ovariectomized rats with SERMs alone or with DHEA: BMD of lumbar spine, femur, tibia (Example 5); type: in vivo, rat; conditions: OVX rats, 5 weeks
Protocol: Ten to twelve week-old female Sprague-Dawley rats (Crl:CD(SD)Br) (Charles River Laboratory, St-Constant, Canada) weighing approximately 220-270 g at start of treatment were used. The animals were acclimatized to the environmental conditions (temperature: 22±3° C.; humidity: 50±20%; 12-h light-12-h dark cycles, lights on at 07:15 h) for at least 1 week before starting the experiments. The animals were housed individually and were allowed free access to tap water and a pelleted certified rodent feed (Lab Diet 5002, Ralston Purina, St-Louis, Mo.). Experiments were conducted in an animal facility approved by the Canadian Council on Animal Care (CCAC) and the Association for Assessment and Accreditation of Laboratory Animal Care (AAALAC) in accordance with the CCAC Guide for Care and Use of Experimental Animals.
On day 1 of the study, the animals of the appropriate groups were bilaterally ovariectomized (Ovx) under isoflurane anesthesia. The DHEA was applied topically on the dorsal skin as a solution in 50% ethanol-50% propylene glycol while the tested SERMs were administered as suspension in 0.4% methylcellulose by oral gavage. Treatments were initiated on day 2 of the study and were performed once daily during 5 weeks.
After 5 weeks of treatment, individual rats under Isoflurane anesthesia had their lumbar spine, femur and tibia scanned using dual energy x-ray absorptiometry (DEXA; QDR 4500A, Hologic, Waltham, Mass.) and a Regional High Resolution Scan software. The bone mineral density (BMD) of the lumbar spine (vertebrae L2 to L4), distal femoral metaphysis (DFM) and proximal tibial metaphysis (PTM) were determined.

[4] = 26-week treatment of ovariectomized rats: lumbar spine BMD, total body fat, serum cholesterol, ALP (Example 4, experiment 2); type: in vivo, rat; conditions: OVX rats, 26 weeks
Protocol: Ten to twelve week-old female Sprague-Dawley rats (Crl:CD(SD)Br) (Charles River Laboratory, St-Constant, Canada) weighing approximately 220-270 g at start of treatment were used. […] The animals were housed individually and were allowed free access to tap water and a pelleted certified rodent feed (Lab Diet 5002, Ralston Purina, St-Louis, Mo.). Experiments were conducted in an animal facility approved by the Canadian Council on Animal Care (CCAC) and the Association for Assessment and Accreditation of Laboratory Animal Care (AAALAC) in accordance with the CCAC Guide for Care and Use of Experimental Animals. […] Treatments were initiated on day 2 of the study and were performed once daily during 26 weeks. In both experiments, animals not receiving a test article were treated with the appropriate vehicle alone during the same period. […] QDR 4500A, Hologic, Waltham, Mass.) and a Regional High Resolution Scan software. […] Samples were processed for serum preparation and frozen at -80° C. until assay. Serum cholesterol levels and alkaline phospatase activity (ALP) were determined using the Boehringer Mannheim Diagnostic Hitachi 911 Analyzer (Boehringer Mannheim Diagnostic Laboratory Systems).

[5] = OVX mice, absence of estrone, 10 μg daily (no-effect statements: 1 μg and 10 μg)
[6] = Premarin 0.25 mg/kg, SERMs 2.5 mg/kg

**Q.** Which “inhibition of estrone-stimulated uterine weight” value ([1]; 1 μg daily) does the source give for `Oc1ccc2c(c1)CC[C@H](c1ccccc1)[C@@H]2c1ccc(OCCN2CCCC2)cc1` [Lasofoxifene (free base)] here?
**A.** Its value is “no inhibitory effect”.

**Q.** What about the “inhibition of estrone-stimulated uterine weight” value ([1]; 3 μg daily) of the same compound?
**A.** The value was 25%.

**Q.** And the “inhibition of estrone-stimulated uterine weight” value ([1]; 10 μg daily)?
**A.** Its value is 44%.

**Q.** What about the “inhibition of vaginal weight (estrone-stimulated)” value (from here on “inhibition of vaginal weight”) ([1]; 10 μg daily) of the same compound?
**A.** Its value is 37%.

**Q.** What about the “stimulation of uterine weight (estrogenic effect)” value [1, 5] of the same compound?
**A.** The value was 93%.

**Q.** And the “stimulation of vaginal weight (estrogenic effect)” value [1, 5]?
**A.** The value was 73%.

**Q.** And the IC50 (human Ishikawa cells; Homo sapiens, Ishikawa, 120 h, read-out: Inhibition of 1 nM E2-induced stimulation of alkaline phosphatase IC50)?
**A.** Its IC50 is 4.24 nM.

**Q.** What about the Emax (human Ishikawa cells; Homo sapiens, Ishikawa, 120 h, read-out: Maximal stimulation of alkaline phosphatase % of 1 nM E2 stimulation) of the same compound?
**A.** Its Emax is 17.9%.

**Q.** And the “Maximal inhibition of 1 nM E2-induced stimulation of alkaline phosphatase” value (human Ishikawa cells; Ishikawa cells, 5-day incubation, 1 nM E2)?
**A.** Its value is 85.14 (1).

**Q.** What about the IC50 ([2]; MCF7, MCF-7, Experiment 2) of the same compound?
**A.** Its IC50 is 0.379 nM.

**Q.** What about the “Stimulation of DNA by tested compounds % of 1 nM E2 stimulation” value ([2]; MCF-7, Experiment 2) of the same compound?
**A.** The value was “N.S”.

**Q.** With `Cc1c(-c2ccc(O)cc2)n(Cc2ccc(OCCN3CCCCCC3)cc2)c2ccc(O)cc12` [TSE 424, 1-[[4-[2-(hexahydro-1H-azepin-1-yl)ethoxy]phenyl]methyl]-2-(4-hydroxyphenyl)-3-methyl-1H-indol-5-ol, acetate] as the compound, how does the “DISTAL FEMORAL METAPHYSIS (DFM) BMD” value [3] read?
**A.** Its value is 0.2929 ± 0.0042 g/cm^2.

**Q.** And the “DISTAL FEMORAL METAPHYSIS (DFM) Prevention of Bone Loss” value [3]?
**A.** Its value is 70%.

**Q.** And the “PROXIMAL TIBIAL METAPHYSIS (PFM) BMD” value [3]?
**A.** Its value is 0.2750 ± 0.0039 g/cm^2.

**Q.** And the “PROXIMAL TIBIAL METAPHYSIS (PFM) Prevention of Bone Loss” value [3]?
**A.** Its value is 71%.

**Q.** And the “LUMBAR SPINE (L2-L4) BMD” value ([3]; SERMs 2.5 mg/kg, DHEA 80 mg/kg)?
**A.** The value was 0.2162 ± 0.0035 g/cm^2.

**Q.** What about the “LUMBAR SPINE (L2-L4) Prevention of Bone Loss” value ([3]; SERMs 2.5 mg/kg, DHEA 80 mg/kg) of the same compound?
**A.** Its value is 53%.

**Q.** What about the “UTERINE WEIGHT” value ([1]; OVX + E1, 1 μg) of the same compound?
**A.** Its value is 105.5 ± 6.1 mg.

**Q.** What about the “VAGINAL WEIGHT” value ([1]; OVX + E1, 1 μg) of the same compound?
**A.** The value was 54.2 ± 3.0 mg.

**Q.** What about the “UTERINE WEIGHT” value ([1]; OVX + E1, 3 μg) of the same compound?
**A.** Its value is 69.7 ± 4.4 mg.

**Q.** And the “VAGINAL WEIGHT” value ([1]; OVX + E1, 3 μg)?
**A.** The value was 47.2 ± 1.6 mg.

**Q.** And the “UTERINE WEIGHT” value ([1]; OVX + E1, 10 μg)?
**A.** The value was 42.1 ± 2.7 mg.

**Q.** And the “VAGINAL WEIGHT” value ([1]; OVX + E1, 10 μg)?
**A.** The value was 31.1 ± 2.3 mg.

**Q.** What about the “UTERINE WEIGHT” value ([1]; OVX + E1, 30 μg) of the same compound?
**A.** The value was 21.7 ± 1.7 mg.

**Q.** What about the “VAGINAL WEIGHT” value ([1]; OVX + E1, 30 μg) of the same compound?
**A.** Its value is 16.7 ± 1.8 mg.

**Q.** What about the “inhibition of estrone-stimulated uterine weight” value ([1]; 1 μg daily) of the same compound?
**A.** Its value is 12%.

**Q.** What about the “inhibition of estrone-stimulated uterine weight” value ([1]; 3 μg daily) of the same compound?
**A.** The value was 47%.

**Q.** What about the “inhibition of vaginal weight” value ([1]; 3 μg daily) of the same compound?
**A.** The value was 16%.

**Q.** What about the “inhibition of estrone-stimulated uterine weight” value ([1]; 10 μg daily) of the same compound?
**A.** The value was 74%.

**Q.** What about the “inhibition of vaginal weight” value ([1]; 10 μg daily) of the same compound?
**A.** The value was 56%.

**Q.** What about the “inhibition of estrone-stimulated uterine weight” value ([1]; 30 μg daily) of the same compound?
**A.** The value was 94%.

**Q.** What about the “inhibition of vaginal weight” value ([1]; 30 μg daily) of the same compound?
**A.** Its value is 93%.

**Q.** And the “UTERINE WEIGHT” value ([1]; OVX without E1, 3 μg)?
**A.** The value was 18.3 ± 1.2 mg.

**Q.** And the “VAGINAL WEIGHT” value ([1]; OVX without E1, 3 μg)?
**A.** The value was 14.1 ± 1.2 mg.

**Q.** And the “UTERINE WEIGHT” value ([1]; OVX without E1, 30 μg)?
**A.** The value was 17.7 ± 1.6 mg.

**Q.** And the “VAGINAL WEIGHT” value ([1]; OVX without E1, 30 μg)?
**A.** The value was 15.3 ± 2.0 mg.

**Q.** And the ALP [4]?
**A.** Its ALP is 85 ± 6 IU.

**Q.** And the “CHOLESTEROL (serum)” value [4]?
**A.** Its value is 1.15 ± 0.05 mmol/L.

**Q.** What about the “TOTAL FAT” value [4] of the same compound?
**A.** Its value is 28.0 ± 1.8 %.

**Q.** And the “reversal of the fat increase induced by estrogen deficiency” value [4]?
**A.** Its value is 75%.

**Q.** What about the “LUMBAR SPINE BMD” value [4, 6] of the same compound?
**A.** The value was 0.2252 ± 0.0058 g/cm^2.

**Q.** What about the “LUMBAR SPINE Prevention of Bone Loss” value [4, 6] of the same compound?
**A.** Its value is 49%.

**Q.** And the IC50 ([2]; MCF7, MCF-7, Experiment 1)?
**A.** Its IC50 is 3.68 nM.
